We go through 13 compounds from PubChem BioAssay (NCI).

Among the test systems are XF 498 CNS; HOP-18 NSCLC; SK-MEL-2 melanoma; DMS 273 small cell lung; EKVX NSCLC; SF-539 CNS; HOP-92 NSCLC; MALME-3M melanoma; ACHN renal; HT29 colon; DLD-1 colon; LXFL 529 NSCLC; MDA-MB-231 breast.
Common to all, as to experiment: NCI anticancer screen, dose series, 48 h

“And” between values parts separate entries of the source, which are not always exact repeats. Equal values may be shown once.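 Exposure lasted 48 hours, with cells grown in 96-well plates and compounds tested at five concentrations. GI50 is the concentration that inhibits growth by half. TGI marks complete inhibition of growth.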

Consider `CCOC(=O)CCC1(C(=O)OC)CCCC1=O` (configuration not stated), for which the TGI in the assay on XF 498 CNS, with HOP-18 NSCLC, in the assay with SK-MEL-2 melanoma, with DMS 273 small cell lung, in the assay on EKVX NSCLC and in the assay on SF-539 CNS was above 100 µM in each case. Moreover, the TGI in the assay with HOP-92 NSCLC, with MALME-3M melanoma, with ACHN renal, in the assay with HT29 colon, in the assay with DLD-1 colon and with LXFL 529 NSCLC was above 100 µM each time.

Consider `O=c1[nH]c(=O)n(C2CC(O)C(CO)O2)cc1C#Cc1ccc(C(F)(F)F)cc1` (configuration not stated), for which the TGI with XF 498 CNS, with HOP-18 NSCLC, in the assay with SK-MEL-2 melanoma, in the assay on DMS 273 small cell lung, in the assay with EKVX NSCLC and with SF-539 CNS was above 100 µM throughout. Moreover, the TGI in the assay on HOP-92 NSCLC, in the assay with MALME-3M melanoma, in the assay with ACHN renal, with HT29 colon, in the assay with DLD-1 colon and in the assay with LXFL 529 NSCLC was above 100 µM throughout.

Turning to `O=C1CCC2(CCC(=O)NC2=O)C(=O)N1`, the TGI with XF 498 CNS, in the assay with DMS 273 small cell lung, with EKVX NSCLC, in the assay on SF-539 CNS, in the assay with MALME-3M melanoma and in the assay with ACHN renal was above 100 µM throughout. Moreover, the TGI with HT29 colon and in the assay with LXFL 529 NSCLC was above 100 µM each time.

For `CC1=NN(C(=O)CC(=O)Nc2cccc(Cl)c2)C(=O)C1N=Nc1ccc(S(N)(=O)=O)cc1` (configuration not stated), the TGI in the assay with XF 498 CNS, in the assay with HOP-18 NSCLC, in the assay with SK-MEL-2 melanoma, in the assay with DMS 273 small cell lung, in the assay on EKVX NSCLC and with SF-539 CNS was above 100 µM each time. In addition, the TGI in the assay on HOP-92 NSCLC, in the assay on MALME-3M melanoma, in the assay on ACHN renal, in the assay on HT29 colon, with DLD-1 colon and in the assay with LXFL 529 NSCLC was above 100 µM in each case.

Turning to `C/C(=N\N(C)C)C(CN(C)C)C(c1ccccc1)c1c(O)c2ccccc2oc1=O` (configuration not stated), the TGI in the assay with XF 498 CNS, in the assay with SK-MEL-2 melanoma, in the assay on DMS 273 small cell lung, in the assay with EKVX NSCLC, with HOP-92 NSCLC and with MALME-3M melanoma was above 100 µM each time. The TGI in the assay with ACHN renal, in the assay with HT29 colon, with DLD-1 colon and in the assay on LXFL 529 NSCLC was above 100 µM each time.

As for `CC(=O)O[C@]12CCCCCCC1C1(O)C(O)CCC[C@H]12` (some centres not stated), the TGI in the assay with XF 498 CNS, in the assay on HOP-18 NSCLC, with SK-MEL-2 melanoma, with DMS 273 small cell lung, in the assay with EKVX NSCLC and with MALME-3M melanoma was above 100 µM in each case. For the same compound, the TGI with ACHN renal, with HT29 colon and in the assay with LXFL 529 NSCLC was above 100 µM throughout.

Consider `Brc1ccc(N2C[N+](c3ccc(Br)cc3)=NC(c3ccccc3)=N2)cc1`, for which the TGI in the assay with XF 498 CNS was 35.5 µM and > 100 µM; with HOP-18 NSCLC, 28 µM and > 100 µM; in the assay with SK-MEL-2 melanoma, 32.6 µM and > 100 µM; with DMS 273 small cell lung, 21.1 µM and > 100 µM; with EKVX NSCLC it was 31.8 µM and > 100 µM; in the assay with SF-539 CNS it was 29.8 µM and > 100 µM. Also, the TGI with HOP-92 NSCLC is 34.1 µM and > 100 µM; in the assay on MALME-3M melanoma it was 31.2 µM and > 100 µM; with ACHN renal, 26.4 µM and > 100 µM; with HT29 colon it was 27.8 µM and > 100 µM; in the assay on DLD-1 colon, 25.2 µM and > 100 µM; in the assay on LXFL 529 NSCLC, 23 µM and > 100 µM.

Regarding `NC1=NS(=O)(=O)N=C(N)C1=Cc1ccc([N+](=O)[O-])o1`, the TGI with XF 498 CNS came to 32.7 µM; with HOP-18 NSCLC, 31.8 µM; with SK-MEL-2 melanoma, 30.9 µM; in the assay on DMS 273 small cell lung, 30.3 µM; with EKVX NSCLC, 32.5 µM; in the assay on SF-539 CNS, 32.3 µM. The TGI with HOP-92 NSCLC was 26.7 µM; with MALME-3M melanoma, 29.7 µM; in the assay with ACHN renal, 30.6 µM; in the assay with HT29 colon, 34 µM; with DLD-1 colon it was 33.7 µM; in the assay on LXFL 529 NSCLC it was 30.8 µM.

For `O=C1c2ccccc2NC2C(O)c3ccccc3N12` (configuration not stated), the TGI in the assay on SK-MEL-2 melanoma, in the assay with MDA-MB-231 breast, in the assay on EKVX NSCLC, in the assay with SF-539 CNS, in the assay on HOP-92 NSCLC and in the assay on MALME-3M melanoma was above 100 µM throughout. Moreover, the TGI with ACHN renal and in the assay on HT29 colon was above 100 µM each time.

Take `CCCCCCCCCCCCCCCCP(=O)(O)OP(=O)(O)OCC1OC(n2ccc(N)nc2=O)C(O)C1O` (configuration not stated): the TGI in the assay with SK-MEL-2 melanoma is above 100 µM; in the assay on MDA-MB-231 breast it was above 100 µM; with EKVX NSCLC, above 100 µM; in the assay with SF-539 CNS, 36.3 µM and 88.6 µM; with HOP-92 NSCLC, > 100 µM and 67.4 µM; with MALME-3M melanoma, > 100 µM and 50.3 µM. Besides, the TGI was > 100 µM and 37.1 µM in the assay with ACHN renal; above 100 µM in the assay on HT29 colon. For the same compound, the GI50 in the assay on MDA-MB-231 breast was > 100 µM and 37.9 µM; in the assay with HOP-92 NSCLC, 65.3 µM and 17.6 µM; in the assay on MALME-3M melanoma it was > 100 µM and 14 µM; in the assay on HT29 colon, > 100 µM and 19.9 µM.

Consider `Cc1[nH]c(=O)nc(N/N=C/c2ccc(Cl)c(Cl)c2)c1C(=O)Nc1ccc(Cl)c(Cl)c1`, for which the TGI in the assay on SK-MEL-2 melanoma is 49.9 µM; in the assay on MDA-MB-231 breast it was 15.2 µM; with EKVX NSCLC, above 100 µM; with SF-539 CNS it was 41.2 µM; with HOP-92 NSCLC, 39.3 µM; in the assay with MALME-3M melanoma, above 44.5 µM. The TGI was above 53.1 µM in the assay on ACHN renal and above 46.5 µM in the assay on HT29 colon.

Regarding `c1ccc(C2=NN3CN(N2)c2ccccc2OCCCOc2ccccc23)cc1`, the TGI with XF 498 CNS, in the assay on SK-MEL-2 melanoma, in the assay on DMS 273 small cell lung, in the assay with EKVX NSCLC, in the assay with SF-539 CNS and in the assay on MALME-3M melanoma was above 100 µM throughout. Further, the TGI in the assay on ACHN renal, with HT29 colon and with LXFL 529 NSCLC was above 100 µM throughout.

For the compound `CCCCCCCCCCCCOC1C(COCCN2CCCC2)OC2OC(C)(C)OC21` (configuration not stated), the TGI with SK-MEL-2 melanoma worked out at 3.09 µM; in the assay on MDA-MB-231 breast, 2.92 µM; with EKVX NSCLC it was 10.2 µM; with SF-539 CNS, 3.17 µM; with HOP-92 NSCLC, 2.72 µM; with MALME-3M melanoma, 3.35 µM. Further, the TGI worked out at 11.2 µM in the assay with ACHN renal and 2.98 µM in the assay on HT29 colon.
